Data published in paper PMC12881674, “Activation of TRPV3 channels in bladder cancer cells stimulates ATP release” (Molecular Pharmacology, 2025).

Target: T1, mouse TRPV3 (Mus musculus, UniProt Q8K424)
T1 construct: expressed in transfected cells; host or cells: HEK293
T1 sequence (Q8K424 1-791): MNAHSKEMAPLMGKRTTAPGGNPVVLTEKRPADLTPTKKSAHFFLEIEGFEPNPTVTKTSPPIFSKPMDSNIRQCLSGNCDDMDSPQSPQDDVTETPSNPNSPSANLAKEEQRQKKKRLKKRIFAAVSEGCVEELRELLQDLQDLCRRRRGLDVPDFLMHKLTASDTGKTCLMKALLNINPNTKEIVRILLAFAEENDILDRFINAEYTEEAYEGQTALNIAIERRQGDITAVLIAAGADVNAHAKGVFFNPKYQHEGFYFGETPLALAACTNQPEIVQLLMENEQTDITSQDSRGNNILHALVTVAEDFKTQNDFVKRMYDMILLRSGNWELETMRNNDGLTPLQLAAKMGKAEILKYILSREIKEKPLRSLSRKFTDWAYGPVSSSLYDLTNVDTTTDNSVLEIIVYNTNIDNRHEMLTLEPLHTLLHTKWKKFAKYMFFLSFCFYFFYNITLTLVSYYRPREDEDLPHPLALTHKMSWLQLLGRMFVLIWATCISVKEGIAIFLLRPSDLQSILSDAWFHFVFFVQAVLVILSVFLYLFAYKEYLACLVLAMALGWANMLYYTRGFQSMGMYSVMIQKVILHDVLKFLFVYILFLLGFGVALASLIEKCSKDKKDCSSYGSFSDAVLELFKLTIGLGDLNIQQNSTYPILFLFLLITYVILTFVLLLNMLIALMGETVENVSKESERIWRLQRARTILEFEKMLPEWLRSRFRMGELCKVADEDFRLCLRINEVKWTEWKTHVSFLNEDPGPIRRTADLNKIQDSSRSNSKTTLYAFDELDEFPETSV
Assay: whole-cell patch-clamp recordings in HEKmTRPV3 cells
Format: cell-based
Method: Whole-cell patch-clamp recordings were performed at room temperature using an […] amplifier connected to a Digidata 1440A digitizer under the control of the pCLAMP 10 software suite (Molecular Devices). Cells were plated onto PLL-coated glass coverslips 24–48 hours prior to recordings. […] The extracellular buffer consisted of 140 mM NaCl, 5 mM CsCl, 2 mM MgCl2, 1 mM CaCl2, and 10 mM HEPES, adjusted to pH 7.4 with NaOH. Recordings were performed with a liquid junction potential of +3.6 mV, which was not corrected. Voltage ramps ranging from −100 to 100 mV (500-millisecond duration) were applied at 1-second intervals. Series resistance was <15 MΩ and compensated by 70%. Only recordings with stable access resistance and minimal leak currents were included in the analysis. […]
Fig. 2 Electrophysiological analysis of AV3-1–activated TRPV3 currents in HEKmTRPV3 cells. […] Current amplitudes were recorded using voltage ramps from −100 mV to +100 mV (500-millisecond duration) such as in B and expressed as current density (pA/pF) measured at +100 mV and −100 mV. […] (C) Quantification of current densities (pA/pF) at −100 mV (inward current) and +100 mV (outward current) at the time points (1, 6–8) as indicated in (A). […] Statistical significance was determined using Kruskal-Wallis ANOVA followed by Conover test; ∗P < .05. […]

- TRPV3 currents evoked by activator (5 μM AV3-1, voltage ramps -100 to +100 mV): robust TRPV3-like currents
- reversibility of effect on TRPV3 upon washout (washout of 5 μM AV3-1): fully reversible
Structure (SMILES): COC(=O)C12CN(Cc3ccccc3)CC1(C(=O)OC)CN(Cc1ccccc1)C2 (centres unmarked) [AV3-1]
